Tested on: A/Vietnam/1194/04(H5N1)-NIBRG-14 highly pathogenic avian influenza virus
Assay type: cell-based

SMILES | Activity | log100TCID50/ | viral titer lower than that of the control group [log] | CPE inhibitory concentration [µg/mL]
C=C1C(=O)OC2CC(C)(O)C3CCC(C)(O)C3CC12 (stereo not drawn) [Compound IV, 4β,10α-dihydroxy-guaia-8α,12-olide] | ∘ (key: ∘: antiviral activity defined as a decrease of 4 log units) | 5 | 4 | 
C=C1C(=O)O[C@@H]2[C@@H]1[C@H](OC(=O)/C(C)=C\C)[C@@]1(O)O[C@H](C[C@@H]1C)C[C@@](C)(O)[C@H]2OC(=O)C(C)C [Compound I, 2α,5-epoxy-5,10-dihydroxy-6α-angeloyloxy-9β-isobutyloxy-germacran-8α,12-olide] |  | 0 |  | >10
C=C1C(=O)O[C@@H]2[C@@H]1[C@H](OC(=O)/C(C)=C\C)[C@@]1(O)O[C@H](C[C@@H]1C)C[C@@](C)(O)[C@H]2OC(=O)CC(C)C [Compound III, 2α,5-epoxy-5,10-dihydroxy-6α-angeloyloxy-9β-(3-methyl-butanoyloxy)-gemacran-8α,12-olide] |  | 0 |  | >10

Reference: patent US20130344183A1, “NOVEL COMPOUND ISOLATED FROM […] ROXB AND USE THEREOF AS ANTIVIRAL AGENT” (priority 2011, published 2013)
